Test results reported in a compilation of properties of binary mixtures (doi:10.1016/j.molliq.2016.09.077).

Assay: xn = mol fraction of the nth substance listed
Conditions: 100 kPa

Compound: CC[n+]1ccn(C)c1.O=S(=O)([N-]S(=O)(=O)C(F)(F)F)C(F)(F)F + CO
- speed of sound (298.15 K, x2 = 0): 1240.2 m/s
- viscosity (298.15 K, x2 = 0): 32.49 mPa·s
- speed of sound (298.15 K, x2 = 0.0938): 1236.3 m/s
- viscosity (298.15 K, x2 = 0.0938): 26.33 mPa·s
- speed of sound (298.15 K, x2 = 0.1965): 1231.5 m/s
- viscosity (298.15 K, x2 = 0.1965): 20.39 mPa·s
- speed of sound (298.15 K, x2 = 0.2889): 1225.3 m/s
- viscosity (298.15 K, x2 = 0.2889): 15.83 mPa·s
- speed of sound (298.15 K, x2 = 0.4005): 1217.3 m/s
- viscosity (298.15 K, x2 = 0.4005): 11.82 mPa·s
- speed of sound (298.15 K, x2 = 0.5088): 1207.8 m/s
- viscosity (298.15 K, x2 = 0.5088): 8.77 mPa·s
- speed of sound (298.15 K, x2 = 0.6909): 1177.9 m/s
- viscosity (298.15 K, x2 = 0.6909): 4.64 mPa·s
- speed of sound (298.15 K, x2 = 0.7961): 1159.9 m/s
- viscosity (298.15 K, x2 = 0.7961): 2.86 mPa·s
- speed of sound (298.15 K, x2 = 0.8978): 1132.9 m/s
- viscosity (298.15 K, x2 = 0.8978): 1.55 mPa·s
- speed of sound (303.15 K, x2 = 0): 1229.3 m/s
- viscosity (303.15 K, x2 = 0): 27.68 mPa·s
- speed of sound (303.15 K, x2 = 0.0938): 1225.2 m/s
- viscosity (303.15 K, x2 = 0.0938): 22.39 mPa·s
- speed of sound (303.15 K, x2 = 0.1965): 1220.1 m/s
- viscosity (303.15 K, x2 = 0.1965): 17.79 mPa·s
- speed of sound (303.15 K, x2 = 0.2889): 1214.2 m/s
- viscosity (303.15 K, x2 = 0.2889): 13.73 mPa·s
- speed of sound (303.15 K, x2 = 0.4005): 1206.3 m/s
- viscosity (303.15 K, x2 = 0.4005): 10.47 mPa·s
- speed of sound (303.15 K, x2 = 0.5088): 1196.7 m/s
- viscosity (303.15 K, x2 = 0.5088): 7.7 mPa·s
- speed of sound (303.15 K, x2 = 0.5988): 1183.4 m/s
- viscosity (303.15 K, x2 = 0.5988): 5.82 mPa·s
- speed of sound (303.15 K, x2 = 0.6909): 1166.9 m/s
- viscosity (303.15 K, x2 = 0.6909): 4.25 mPa·s
- speed of sound (303.15 K, x2 = 0.7961): 1147.4 m/s
- viscosity (303.15 K, x2 = 0.7961): 2.61 mPa·s
- speed of sound (303.15 K, x2 = 0.8978): 1120.1 m/s
- viscosity (303.15 K, x2 = 0.8978): 1.43 mPa·s
- speed of sound (308.15 K, x2 = 0): 1218.5 m/s
- viscosity (308.15 K, x2 = 0): 23.29 mPa·s
- speed of sound (308.15 K, x2 = 0.0938): 1214.6 m/s
- viscosity (308.15 K, x2 = 0.0938): 19.27 mPa·s
- speed of sound (308.15 K, x2 = 0.1965): 1208.9 m/s
- viscosity (308.15 K, x2 = 0.1965): 15.16 mPa·s
- speed of sound (308.15 K, x2 = 0.2889): 1203.2 m/s
- viscosity (308.15 K, x2 = 0.2889): 12.01 mPa·s
- speed of sound (308.15 K, x2 = 0.5088): 1185.5 m/s
- viscosity (308.15 K, x2 = 0.5088): 6.82 mPa·s
- speed of sound (308.15 K, x2 = 0.5988): 1172.4 m/s
- viscosity (308.15 K, x2 = 0.5988): 5.22 mPa·s
- speed of sound (308.15 K, x2 = 0.6909): 1154.9 m/s
- viscosity (308.15 K, x2 = 0.6909): 3.84 mPa·s
- speed of sound (308.15 K, x2 = 0.7961): 1135.5 m/s
- viscosity (308.15 K, x2 = 0.7961): 2.37 mPa·s
- speed of sound (313.15 K, x2 = 0): 1207.9 m/s
- viscosity (313.15 K, x2 = 0): 20.16 mPa·s
- speed of sound (313.15 K, x2 = 0.0938): 1203.9 m/s
- viscosity (313.15 K, x2 = 0.0938): 16.71 mPa·s
- speed of sound (313.15 K, x2 = 0.1965): 1197.9 m/s
- viscosity (313.15 K, x2 = 0.1965): 13.25 mPa·s
- speed of sound (313.15 K, x2 = 0.2889): 1192.3 m/s
- viscosity (313.15 K, x2 = 0.2889): 10.57 mPa·s
- speed of sound (313.15 K, x2 = 0.5988): 1161.2 m/s
- viscosity (313.15 K, x2 = 0.5988): 4.65 mPa·s
- speed of sound (313.15 K, x2 = 0.7961): 1122.7 m/s
- viscosity (313.15 K, x2 = 0.7961): 2.16 mPa·s
- speed of sound (313.15 K, x2 = 0.8978): 1094.6 m/s
- viscosity (313.15 K, x2 = 0.8978): 1.22 mPa·s
- speed of sound (318.15 K, x2 = 0): 1197.3 m/s
- viscosity (318.15 K, x2 = 0): 17.48 mPa·s
- speed of sound (318.15 K, x2 = 0.0938): 1193.3 m/s
- viscosity (318.15 K, x2 = 0.0938): 14.63 mPa·s
- speed of sound (318.15 K, x2 = 0.2889): 1181.6 m/s
- viscosity (318.15 K, x2 = 0.2889): 9.38 mPa·s
- speed of sound (318.15 K, x2 = 0.4005): 1173.4 m/s
- viscosity (318.15 K, x2 = 0.4005): 7.26 mPa·s
- speed of sound (318.15 K, x2 = 0.5088): 1163.5 m/s
- viscosity (318.15 K, x2 = 0.5088): 5.47 mPa·s
- speed of sound (318.15 K, x2 = 0.5988): 1150.2 m/s
- viscosity (318.15 K, x2 = 0.5988): 4.22 mPa·s
- speed of sound (318.15 K, x2 = 0.6909): 1131.2 m/s
- viscosity (318.15 K, x2 = 0.6909): 3.13 mPa·s
- speed of sound (318.15 K, x2 = 0.7961): 1110.4 m/s
- viscosity (318.15 K, x2 = 0.7961): 1.98 mPa·s
- speed of sound (318.15 K, x2 = 0.8978): 1082 m/s
- viscosity (318.15 K, x2 = 0.8978): 1.13 mPa·s
- speed of sound (323.15 K, x2 = 0): 1187 m/s
- viscosity (323.15 K, x2 = 0): 15.34 mPa·s
- speed of sound (323.15 K, x2 = 0.0938): 1182.8 m/s
- viscosity (323.15 K, x2 = 0.0938): 12.94 mPa·s
- speed of sound (323.15 K, x2 = 0.1965): 1176.2 m/s
- viscosity (323.15 K, x2 = 0.1965): 10.42 mPa·s
- speed of sound (323.15 K, x2 = 0.2889): 1170.9 m/s
- viscosity (323.15 K, x2 = 0.2889): 8.38 mPa·s
- speed of sound (323.15 K, x2 = 0.4005): 1162.8 m/s
- viscosity (323.15 K, x2 = 0.4005): 6.56 mPa·s
- speed of sound (323.15 K, x2 = 0.5088): 1152.6 m/s
- viscosity (323.15 K, x2 = 0.5088): 4.94 mPa·s
- speed of sound (323.15 K, x2 = 0.5988): 1139.3 m/s
- viscosity (323.15 K, x2 = 0.5988): 3.86 mPa·s
- speed of sound (323.15 K, x2 = 0.6909): 1119.6 m/s
- viscosity (323.15 K, x2 = 0.6909): 2.87 mPa·s
- speed of sound (323.15 K, x2 = 0.8978): 1069.4 m/s
- viscosity (323.15 K, x2 = 0.8978): 1.05 mPa·s
